# Source: patent publication US5310920A, “N-vinylimidazolidine derivatives insecticides containing same as an effective ingredient” (priority 1991, dated 1994)
# Like-named read-outs stand apart in the source and are kept apart here.
# Columns and labels:
# [1] = test system: Laodelphax striatellus Fallen - smaller brown planthopper; assay: Test Example 1: Effect on smaller brown planthopper, mortality; type: in vivo; settings: 5 ppm, 48 hours, 25° C., ten female adults, rice seedlings
# Method: Effect on Laodelphax sriatellus Fallen--smaller brown planthopper
# (§1) The emulsion prepared in Formulation Example 1 was diluted to a predetermined concentration and 2 ml of the diluted emulsion was applied over a bundle of several rice seedlings (about third leaf stage). After drying in air, the treated seedlings were covered with a metal gauze cylinder, in which ten female adults of the smaller brown planthopper were released, followed by placing in a temperature controlled room at 25° C. After 48 hours, the mortality was checked.
# [2] = test system: resistant strain of Nephotettix cincticeptus Uhler - resistant green rice leafhopper; assay: Test Example 2: Effect on resistant green rice leafhopper, mortality; type: in vivo; settings: Nephotettix cincticeps
# Method: (§2) Effect on resistant strain of Nephotettix cincticeptus Uhler--resistant green rice leafhopper
# as §1, with “and 3” for “and 2”, “the leafhopper that is resistant to organophosphate and carbamate insecticides” for “the smaller brown planthopper”
# [3] = test system: Laodelphax striatellus Fallen - smaller brown planthopper; assay: Test Example 5: Effect on smaller brown planthopper, LC50; type: in vivo; settings: 48 hours, 25° C.
# Method: Effect on Laodelphax striatellus Fallen--smaller brown planthopper
# (§3) The emulsion prepared in Formulation Example 1 was diluted to predetermined concentrations, and 2 ml of each diluted emulsion was applied over a bundle of several rice seedlings (about third leaf stage). After drying in air, the treated seedlings were covered with a metal gauze cylinder, in which ten female adults of the smaller brown planthopper were released, followed by placing in a temperature controlled room at 25° C. After 48 hours, the mortality was checked, from which the medium-lethal concentration (LCO) was obtained.
# [4] = test system: Myzus persicae Suizer - green peach aphid; assay: Test Example 7: Effect on green peach aphid, density of living insects; type: in vivo; settings: after three days; 100 × (living insects after / before treatment)
# Text: Effect on Myzus persicae Suizer--green peach aphid
# After the application, the seedlings were placed in the greenhouse and, after three days, the number of the aphids was checked, from which the density of the living insects was obtained. The tests were repeated two times.
# (§4) Density of Living Insects = 100 × (number of living insects after
# (§5) treatment/number of living insects before treatment)
# [5] = test system: resistant strain of Nephotettix cincticeptus Uhler - resistant green rice leafhopper; assay: Test Example 6: Effect on resistant green rice leafhopper, LC50; type: in vivo; settings: Nephotettix cincticeps, 48 h
# Method: as §2
# as §3, with “leafhopper that is resistant to organophosphate and carbamate insecticides” for “smaller brown planthopper”, “50 %-lethal” for “medium-lethal”, “(LC50)” for “(LCO)”
# [6] = Test Example 8: Acute Toxicity Test to Mice; settings: mouse, in vivo, po; forced peroral administration, corn oil, 6-week mice, up to 14 days
# Method: Acute Toxicity Test to Mice
# The compound of the invention having a predetermined concentration was dissolved in corn oil and applied to 6-week mice by forced peroral administration. Up to 14 days from the administration, the number of the died mice was counted periodically, from which the 50 %-lethal […] (LD50) was obtained. One group for the test comprised ten mice.
# [7] = test system: Myzus persicae Suizer - green peach aphid; assay: Test Example 4: Effect on green peach aphid, density of living insects; type: in vivo; settings: 50 ppm, after three days; 100 × (living insects after / before treatment)
# Method: Effect on Myzus persicae Suizer green peach aphid
# 20 ml of a dilution of the emulsion prepared in Formulation Example 1 was sprayed over potted eggplant seedlings (fourth or fifth leaf stage), as having been grown in a greenhouse, on which the green peach aphids had been parasitic. After the application, the seedlings were placed in the greenhouse and, after three days, the number of the aphids was checked.
# as §4, §5
# [8] = test system: Callosobruchus chinensis Linne - Azuki bean weevil; assay: whole plant or invertebrate; type: in vivo; settings: 48 h
# Method: Effect on Callosobruchus chinensis Linne--Azuki bean weevil:
# An acetone solution of the compound of the invention was added to a Petri dish with a diameter of 9 cm, followed by removal of the acetone by evaporation. Twenty female adults of the Azuki bean weevil, which were 2 to 3 days after emergence were placed in the dish at 25° C. After 48 hours, the mortality was checked.
# [9] = 3 ppm, 48 hours, 25° C., ten female adults resistant to organophosphate and carbamate insecticides, read-out: Mortality (%)
compound,measurement,setting,value
O=[N+]([O-])N=C1N(C=Cc2ccccc2Cl)CCN1Cc1ccc(Cl)nc1 [No. 12],Mortality (%),[1],100%
O=[N+]([O-])N=C1N(C=CCc2ccccc2)CCN1Cc1ccc(Cl)nc1 [No. 40],Mortality (%),[1],100%
same,mortality at 3 ppm,[2]; [9],100%
CC(C)C=CN1CCN(Cc2ccc(Cl)nc2)C1=N[N+](=O)[O-] [No. 27],LC50,[3],1 ppm
same,Density of Living Insects,[4],0
same,LC50,[5],0.3 µg/mL
same,LD50 at 336 h,[6],1000 mg/kg
"COP(=O)(OC)OC=C(Cl)Cl [DDVP, 0,0-dimethyl-0-(2,2-dichlorovinyl)phosphate]",Density of Living Insects,[7],30
"CCSC=CN1CCN(Cc2ccc(Cl)nc2)C1=N[N+](=O)[O-] [No. 42, 1-(2-chloropyridin-5-ylmethyl)-2-nitroimino-3-(2-ethylthiovinyl)imidazolidine]",Mortality (%),[1],100%
O=[N+]([O-])N=C1N(C=Cc2ccc3c(c2)OCO3)CCN1Cc1ccc(Cl)nc1 [No. 11],Mortality (%),[1],100%
same,mortality at 3 ppm,[2]; [9],100%
"COCN1CCN(Cc2ccc(Cl)nc2)C1=N[N+](=O)[O-] [Reference Chemical (2), 1(2-chloropyridin-5-ylmethyl)-2-nitroimino-3-methoxymethylimidazolidine, reference compound]",Mortality (%),[1],20%
same,mortality at 3 ppm,[2]; [9],30%
CCOP(=S)(OCC)Oc1cc(C)nc(C(C)C)n1 [Diazinone],"mortality at 0.01 mg/dish, 0.01 mg/dish",[8],58%
"O=[N+]([O-])N=C1N(CCc2ccc(Cl)cc2)CCN1Cc1ccc(Cl)nc1 [Reference Chemical (1), 1(2-chloropyridin-5-ylmethyl)-2-nitroimino-3-{2-(4-chlorophenyl)ethyl}imiazolidine, reference compound]",Mortality (%),[1],20%
same,mortality at 3 ppm,[2]; [9],25%
C=CN1CCN(Cc2ccc(Cl)nc2)C1=N[N+](=O)[O-] [No. 1],Mortality (%),[1],100%
same,mortality at 3 ppm,[2]; [9],100%
"C=CCN1CCN(Cc2ccc(Cl)nc2)C1=N[N+](=O)[O-] [Reference Chemical 1, 1(2-chloropyridin-5-ylmethyl)-2-nitroimino-3-allylimidazolidine, reference compound]",LC50,[3],10 ppm
same,Density of Living Insects,[4],25
same,LC50,[5],3 µg/mL
same,LD50 at 336 h,[6],100 to 200 mg/kg
O=[N+]([O-])N=C1N(C=Cc2ccccc2)CCN1Cc1ccc(Cl)nc1 [No. 2],LC50,[3],3 ppm
same,Density of Living Insects,[4],20
same,LC50,[5],1.5 µg/mL
same,mortality at 3 ppm,[2]; 48 h,100%
O=C(NC=CN1CCN(Cc2ccc(Cl)nc2)C1=N[N+](=O)[O-])c1ccccc1 [No. 41],Mortality (%),[1],100%
"O=[N+]([O-])N=C1N(CCc2ccccc2)CCN1Cc1ccc(Cl)nc1 [Reference Chemical 2, 1(2-chloropyridin-5-ylmethyl)-2-nitroimino-3-(2-phenylethyl)imidazolidine, reference compound]",LC50,[3],20 ppm
same,Density of Living Insects,[4],108
same,LC50,[5],10 µg/mL
O=[N+]([O-])N=C1N(C=Cc2ccc(Cl)cc2)CCN1Cc1ccc(Cl)nc1 [No. 14],Mortality (%),[1],100%
"CCCCC(=CN1CCN(Cc2ccc(Cl)nc2)C1=N[N+](=O)[O-])CC [No. 33, 1-(2-chloropyridin-5-ylmethyl)-2-nitroimino-3-(2-ethyl-1hexenyl)imidazlidine]",Mortality (%),[1],100%
same,mortality at 3 ppm,[2]; [9],100%
COc1ccc(C=CN2CCN(Cc3ccc(Cl)nc3)C2=N[N+](=O)[O-])cc1 [No. 10],LD50 at 336 h,[6],> 5000 mg/kg
same,mortality at 3 ppm,[2]; [9],100%
